How the values were obtained:
[1] = system: H1N1 influenza A/Puerto Rico/8/34 (PR8 influenza virus strain); experiment: Influenza model mice study: body weight and survival after D-amino acid administration; assay type: in vivo, C57BL6 mice
Text: (§1) FIG. 1 is a schematic diagram showing the experimental protocol for D-AA administration (+D-AA) to IAV and Mock in Example 1. C57BL6 mice (SLC, Tokyo, Japan) raised in a specific pathogen control facility were used. In order to increase the amount of virus in the mice in a short period of time, […] water containing 50 times the TCID50 (median tissue culture infectious dose, 50% infectious dose) of H1N1 influenza A/Puerto Rico/8/34 (PR8 influenza virus strain (ATCC, Manassas, USA) was administered intranasally to anesthetized 4-week-old individuals to infect them. After infection, individuals in each group were weighed and blood samples were collected on a predetermined schedule, and plasma chiral amino acids (D-amino acids and L-amino acids) were quantitatively analyzed by 2D-HPLC.

SARS-CoV-2 = experiment: COVID-19 model mice study: body weight and survival after D-Ala administration; assay type: in vivo, CAG-hACE2 mice
Experimental: FIG. 10 is a schematic diagram of the experimental protocol using coronavirus-infected mice in Example 2. CAG-hACE2 mice susceptible to SARS-CoV-2, which were developed at the National Institute of Biomedical Innovation, Health and Nutrition, were used. 2×10^2 to 10^4 of TCID50 of SARS-CoV-2 was administered to anesthetized 8—to 12-week-old individuals for bronchial infection to create a mouse model of coronavirus infection (Non-Patent Literature 9).
FIG. 12 is a schematic diagram of the experimental schedule of D-Ala administration to coronavirus-infected mice in Example 2. 8—to 12-week-old male and female CAG-hACE2 mice were subjected to intraperitoneal administration with a predetermined dose of D-Ala twice daily, which was stared from 2 days prior to the experiment. The mice were then infected with SARS-CoV-2 via the respiratory tract.

[2] = system: H1N1 influenza A/Puerto Rico/8/34 (PR8 influenza virus strain); experiment: Viral plaque quantification assay of lung tissue in influenza model mice; assay type: in vivo, C57BL6 mice; conditions: FIG. 3A; day 5 after D-Ala administration; IAV+D-Ala vs IAV group, n=3 to 7
Text: as §1
FIG. 3A is a graph showing the results of the viral plaque quantification assay of lung tissue on day 5 after D-Ala administration in the Mock, IAV, and IAV+D-Ala groups (n=3 to 7) in Example 1.

[3] = FIG. 8, IAV (Vehicle), IAV+D-Ser, IAV+D-Ala groups
[4] = FIG. 9, IAV (Vehicle), IAV+D-Ser, IAV+D-Ala groups

| SMILES | survival curves, Kaplan-Meier analysis with death as the endpoint [1, 3] | rates of change in body weight [1, 4] | survival curves, Kaplan-Meier analysis with death as the endpoint (SARS-CoV-2; FIG. 14, SCV (Vehicle) vs SCV+D-Ala) | rates of change in body weights over time (SARS-CoV-2; FIG. 17, SCV (Vehicle) vs SCV+D-Ala) | survival curves, Kaplan-Meier analysis with weight loss and death as composite endpoints (SARS-CoV-2; FIG. 18, SCV (Vehicle) vs SCV+D-Ala) | survival curves by blood D-Ala level, Kaplan-Meier analysis with death as the endpoint (SARS-CoV-2; FIG. 19, SCV+D-Ala group split into high (>4.72 μM) and low (<4.72 μM) BD-Ala) | rates of change in body weight ([1]; FIG. 2, IAV+D-Ala vs IAV group, n=3-10, *P<0.05) | survival curves, Kaplan-Meier analysis with death as the endpoint ([1]; FIG. 4, Mock, Mock+D-Ala, IAV, IAV+D-Ala groups, n=3-10) | amount of virus, viral plaque quantification assay of lung tissue [2] |
| --- | --- | --- | --- | --- | --- | --- | --- | --- | --- |
| N[C@H](CO)C(=O)O [D-Ser, D-serine] | suppressed the mortality | rates of weight loss were suppressed | – | – | – | – | – | – | – |
| C[C@@H](N)C(=O)O [D-Ala, D-alanine] | suppressed the mortality | rates of weight loss were suppressed | suppressed the mortality | smaller rate of decrease in body weights | suppressed the weight loss and the mortality | better prognosis | rates of weight loss were suppressed | suppressed the mortality rate | increase in the amount of virus in the IAV+D-Ala group was suppressed |

From patent US20240145091A1, “METHOD FOR MODULATING THE AMOUNT OF VIRUS, METHOD FOR TREATING OR […] […], METHOD FOR […] AMOUNT OF VIRUS, AND METHOD FOR PREDICTING THE PROGNOSIS OF VIRUS INFECTION DISEASE IN SUBJECT, AS WELL AS COMPOSITION AND SYSTEM FOR THE SAME” (National Institutes of Biomedical Innovation, Health and …, priority 2022, published 2024)
